Patent US8754067B2, “22-haloacetoxy-homopregnacalciferol analogs and their uses” (Wisconsin Alumni Research Foundation, priority 2010, dated 2014)

Experiments:
[1] = test system: H-82 lung carcinoma cells; assay: Cell viability, H-82 lung carcinoma cells; assay type: cell-based; settings: four days growth, methylene blue; FIG. 5A/5B
Protocol: (§1) Various cell lines were plated, administered a range of drug concentrations one time, allowed to grow for four days and then the number of cells present counted and expressed as a percentage of those present in the vehicle control plates. […] The number of live cells was expressed as a percentage of the total present. Each assay was done in duplicate.

[2] = test system: HL-60 leukemia cells; assay: HL-60 differentiation (nitro blue tetrazolium reduction); assay type: cell-based, human; settings: FIG. 2
Protocol: The study drugs were dissolved in ethanol and the concentrations determined using UV spectrophotometry. Serial dilutions were prepared so that a range of drug concentrations could be tested without changing the final concentration of ethanol (≦0.2%) present in the cell cultures.
Human promyelocytic leukemia (HL60) cells were grown in RPMI-1640 medium containing 10% fetal bovine serum. The cells were incubated at 37° C. in the presence of 5% CO2.
HL60 cells were plated at 1.2×10^5 cells/ml. Eighteen hours after plating, cells in duplicate were treated with drug. Four days later, the cells were harvested and a nitro blue tetrazolium reduction assay was performed (Collins et al., 1979; J. Exp. Med. 149:969-974). The percentage of differentiated cells was determined by counting a total of 200 cells and recording the number that contained intracellular black-blue formazan deposits. Verification of differentiation to monocytic cells was determined by measuring phagocytic activity (data not shown).

[3] = test system: HL-60 leukemia cells; assay: Cell viability, HL-60 leukemia cells; assay type: cell-based, human; settings: four days growth, methylene blue; FIG. 4A/4B
Protocol: as §1

[4] = test system: DU-145 prostate cells; assay: Cell viability, DU-145 prostate cells; assay type: cell-based; settings: four days growth, methylene blue; FIG. 6A/6B
Protocol: as §1

[5] = test system: bone calcium mobilization; assay: Bone calcium mobilization (serum calcium) in vitamin D-deficient rats; assay type: in vivo, rat; settings: vitamin D-deficient rats on 0.02% Ca diet, FIG. 7
Protocol: (§2) Male, weanling Sprague-Dawley rats were placed on Diet 11 (Suda et al, J. Nutr. 100:1049, 1970) (0.47% Ca)+AEK oil for one week followed by Diet 11 (0.02% Ca)+AEK oil for 3 weeks. The rats were then switched to the same diet containing 0.47% Ca for one week followed by two weeks on the same diet containing 0.02% Ca. Dose administration began during the last week on 0.02% calcium diet. Four consecutive intraperitoneal (ip) doses were given approximately 24 hours apart. Twenty-four hours after the last dose, blood was collected from the severed neck and the concentration of serum calcium determined by atomic absorption spectrometry as a measure of bone calcium mobilization. The first 10 cm of the intestine was also collected for intestinal calcium transport analysis using the everted gut sac method.

[6] = test system: intestinal calcium transport; assay: Intestinal calcium transport (everted gut sac) in vitamin D-deficient rats; assay type: in vivo, rat; settings: 4 consecutive ip doses, FIG. 8
Protocol: as §2

[7] = test system: 24-hydroxylase (24 Ohase) gene promoter in ROS 17/2.8 (bone) cells; assay: In vitro transcription assay (luciferase reporter); assay type: cell-based; settings: ROS 17/2.8 cells, 16 hours after dosing; FIG. 3; read-out: EC50, transcriptional activity in bone cells
Protocol: Transcription activity was measured in ROS 17/2.8 (bone) cells that were stably transfected with a 24-hydroxylase (24 Ohase) gene promoter upstream of a luciferase reporter gene (Arbour et al., 1998). Cells were given a range of doses. Sixteen hours after dosing the cells were harvested and luciferase activities were measured using a luminometer. RLU=relative luciferase units.

[8] = Body weight of dosed animals; assay type: in vivo, rat; settings: various doses, throughout the test period; FIG. 9
Protocol: as §2

[9] = molecular target: T1, full-length recombinant rat vitamin D receptor (Rattus norvegicus, UniProt P13053); assay: Vitamin D receptor binding, competition with [3H]-1,25(OH)2D3; settings: FIG. 1
T1 construct: Full-length recombinant rat receptor was expressed in E. coli; histidine tag (C); made in house; host or cells: E. coli BL21 (DE3) Codon Plus RIL
T1 sequence (P13053 1-423): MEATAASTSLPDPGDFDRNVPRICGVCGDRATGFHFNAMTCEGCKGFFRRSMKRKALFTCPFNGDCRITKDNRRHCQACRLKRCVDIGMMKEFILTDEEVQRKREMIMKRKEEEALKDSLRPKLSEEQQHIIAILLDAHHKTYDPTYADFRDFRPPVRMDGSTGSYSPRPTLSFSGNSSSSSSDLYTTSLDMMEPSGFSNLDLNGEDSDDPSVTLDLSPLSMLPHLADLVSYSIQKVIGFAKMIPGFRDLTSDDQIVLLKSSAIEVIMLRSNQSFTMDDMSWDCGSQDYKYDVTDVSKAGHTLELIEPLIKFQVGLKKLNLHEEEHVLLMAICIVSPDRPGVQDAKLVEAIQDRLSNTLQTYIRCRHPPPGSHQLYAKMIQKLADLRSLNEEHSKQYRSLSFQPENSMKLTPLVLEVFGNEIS
Protocol: Full-length recombinant rat receptor was expressed in E. coli BL21 (DE3) Codon Plus RIL cells and purified to homogeneity using two different column chromatography systems. The first system was a nickel affinity resin that utilizes the C-terminal histidine tag on this protein. The protein that was eluted from this resin was further purified using ion exchange chromatography (S-Sepharose Fast Flow). Aliquots of the purified protein were quick frozen in liquid nitrogen and stored at −80° C. until use. For use in binding assays, the protein was diluted in TEDK50 (50 mM Tris, 1.5 mM EDTA, pH7.4, 5 mM DTT, 150 mM KCl) with 0.1% Chaps detergent. The receptor protein and ligand concentration was optimized such that no more than 20% of the added radiolabeled ligand was bound to the receptor.
Radiolabeled and unlabeled ligands were added to 100 mcl of the diluted protein at a final ethanol concentration of ≦10%, mixed and incubated overnight on ice to reach binding equilibrium. The following day, 100 mcl of hydroxylapatite slurry (50%) was added to each tube and mixed at 10-minute intervals for 30 minutes. […] After the final wash, the pellets were transferred to scintillation vials containing 4 ml of Biosafe II scintillation cocktail, mixed and placed in a scintillation counter. Total binding was determined from the tubes containing only radiolabeled ligand.

SMILES	cell viability of H-82 lung carcinoma cells [1]	EC50 ([2]; four days after treatment, read-out: EC50, HL-60 cell differentiation) [nM]	cell viability of HL-60 leukemia cells [3]	cell viability of DU-145 prostate cells [4]	bone calcium mobilization (serum calcium) ([5]; 780 pmol, 4 consecutive ip doses)	intestinal calcium transport activity ([6]; 780 pmol)	EC50 [7] [nM]	HL-60 cell differentiation activity [2]	bone calcium mobilization (serum calcium) ([5]; 105,300 pmol/day ip for 4 consecutive days)	change in body weight [8]	Ki ([9]; full-length recombinant rat VDR) [nM]	times less active than 1α,25-dihydroxyvitamin D3 in VDR binding ([9]; relative to natural hormone) [times]	intestinal calcium transport activity ([6]; 35,100 pmol/rat)
C=C1/C(=C\C=C2/CCC[C@]3(C)[C@@H]([C@H](C)CCCC(C)(C)O)CC[C@@H]23)C[C@@H](O)C[C@@H]1O [1,25(OH)2D3, 1α,25-dihydroxyvitamin D3, reference compound]	does not have any significant effect	2	does not have any significant effect	neither AB-47 nor 1,25(OH)2D3 have any significant effect	significant increases in serum calcium	significant increase in activity							
C=C1CC[C@H](O)C/C1=C/C=C1\CCC[C@]2(C)[C@@H]([C@H](C)COC(=O)CBr)CC[C@@H]12 [AB-47, 22-bromoacetoxy-homopregnacalciferol]	kills H-82 lung carcinoma cells		kills HL-60 leukemia cells	neither AB-47 nor 1,25(OH)2D3 have any significant effect			> 1000	does not promote HL60 differentiation	little or no mobilization of bone calcium	substantially maintain their body weight	3	100	little to no activity
